Results taken from a melting point compilation (Tetko et al.; mined from patent text by program, amines drawn as free bases though some values may be those of a salt).

| Compound | melting point |
| --- | --- |
| Clc1ccc2nc(-n3cccn3)nnc2c1 | 188 °C |
| CCCC(=O)Nc1ccc(-c2ccncc2)cc1 | 174 to 175 °C |
| CC(C)(C)c1cc(C(O)CN)cc(C(C)(C)C)c1O (centres undefined) | 137 to 140 °C |
| Cn1c(-c2nnc(Cc3ccc(F)cc3)o2)c(O)c(=O)c2ccccc21 | 222 °C |
| O=[N+]([O-])c1cnc2cc(Cl)ccc2c1O | > 300 °C |
| Cc1ccccc1C(=O)Nc1ccc(C(=O)N2CCCC(N(C)C)c3ccccc32)c(C)c1 (centres undefined) | 183 to 185 °C |
| Oc1cc(C(F)(F)F)nn1-c1ccc(Cl)cn1 | 58 to 59 °C |
| CCCCCCOc1ccc(C=[N+]([O-])CCCCCC[N+]([O-])=Cc2ccc(OCCCCCC)cc2)cc1 | 80 °C |
| CC(C)(C)C(=O)OCCN(CCOC(=O)C(C)(C)C)C(=O)COC(=O)C(C)(C)C | 51.4 °C |
| O=C(c1ccc(Cl)cc1)C(Oc1cccc(Cl)n1)n1cncn1 (centres undefined) | 162 °C |
| CCOC(=O)C1=C(C)NC(C)=C(C(=O)OCC)C1c1ccccc1Cl | 120 to 121 °C |
| COCCNCCOc1ccc(NC(=O)c2ccccc2NS(C)(=O)=O)cc1 | 164 to 165 °C |
| CCCCCCN(Cc1ccc(F)cc1)c1ccc(C(=O)OCC)cc1 | 41 to 42 °C |
| Cc1[nH]c2ccccc2c1CCCN1CCC(C(=O)c2ccc(F)cc2)CC1 | 135 to 137 °C |
| COc1cccc(C2OC(=O)CC2C(=O)O)c1OC (centres undefined) | 129 to 130 °C |
| CN(C)C=CC=C(C#N)C(=O)N(C)C | 149 to 150 °C |
| NS(=O)(=O)c1c(CF)nsc1OCC(F)(F)F | 70 to 73 °C |
| O=S1(=O)N=C2CCCN2c2ccc(Oc3cccc(O)c3)cc21 | > 300 °C |
| COc1cc(-c2n[nH]c(N)n2)c(OC)cc1C | 248 °C |
| O=C(c1c(F)cccc1F)N1CN(c2ccccc2)CN(c2ccc(Cl)cc2)C1=O | 166 to 168 °C |
| Cc1cccc(C)c1NCCNCC(O)COc1cccc2[nH]ncc12 (centres undefined) | 127 to 128 °C |
| CCc1cccc(CC(=O)O)c1OCCn1cc(C(=O)NCc2ccc(C(F)(F)F)cc2)c(OC(C)C)n1 | 110 to 111 °C |
| Cc1ccc(S(=O)(=O)N2CCC(c3ccc(O)cc3O)CC2)cc1 | 206 to 207 °C |
| NC(=O)CCn1c(-c2ccc(Cl)cc2)nc2cccnc21 | 248 to 250 °C |
| O=Cc1ccn(-c2cc3[nH]c(=O)c(=O)[nH]c3cc2[N+](=O)[O-])c1 | > 250 °C |

| Compound | melting point |
| --- | --- |
| Cn1ncc2c1-c1c(Oc3ccc(F)cc3)sc(C(N)=O)c1CC2 | 188 to 189 °C |
| CC(=O)SCC(Cc1ccccc1)C(=O)Nc1cc(C(=O)O)ccc1N1CCCC1 (centres undefined) | 217 to 222 °C |
| COC1=CC2=CCC3C(CCC4(C)C(=O)CC(OC(C)=O)C34)C2(C)CC1 (centres undefined) | 209 °C |
| COc1cc(C(=O)[C@H](C)NC(=O)C(F)(F)F)c(OC)cc1Br | 144 to 145 °C |
| O=C(Nc1nccs1)C(CC1CCCC1)c1ccc(-c2cccnc2)cc1 (centres undefined) | 48 to 52 °C |
| CCOC(=O)Cc1ccc(-c2nc(COc3ccc(COc4nn(-c5ccccc5)cc4/C=C/c4nc(N5CCCCC5)sc4C)cc3OC)c(C)o2)cc1 | 131 to 132 °C |
| Cc1noc(NS(=O)(=O)c2ccccc2-c2ccc(-c3ncco3)cc2COCC(C)C)c1C | 86 to 98 °C |
| COc1cc(C(=O)O)c(-c2cc3cc(O)ccc3[nH]2)cc1OC | 160 °C |
| O=C1NCCCC1Cc1ccccc1 (centres undefined) | 120 to 123 °C |
| O=Cc1c(NC(Cc2ccccc2)C(=O)O)ncnc1-c1ccc(OCc2ccccc2)cc1 (centres undefined) | > 300 °C |
| Cc1c(-c2ccc(C3CCCCC3)cc2)nc2ccc(F)cc2c1C(=O)O | 316 to 323 °C |
| O=C(O)C1=Cc2cc(Cl)c(-c3ccccc3)cc2OC1C(F)(F)F (centres undefined) | 185 to 188 °C |
| C(OCC1CO1)C1CO1 (centres undefined) | 90 to 93 °C |
| OCc1cc2cc(OCc3ccccc3)ccc2[nH]1 | 106 to 107 °C |
| CN1CCC(N(C)C(=O)CNS(=O)(=O)c2ccc(Nc3nccc(Nc4ccc(F)cc4)n3)cc2)CC1 | 233 to 234 °C |
| CCCCc1[nH]c(Cc2ccccc2)nc(=O)c1Cc1ccc(-c2ccccc2C(=O)O)cc1 | 219 °C |
| COC(=O)C1CCN(CCc2ccc(OC)cc2)CC1 | 66 to 68 °C |
| COC(=O)c1cc2cc(C=O)ccc2[nH]1 | 208 °C |
| COc1ccc(CNc2cc(C(c3cc(F)ccc3F)S(=O)(=O)c3ccc(Cl)cc3)c(Cl)cn2)cc1OC (centres undefined) | 204 to 206 °C |
| CCCCOC(=O)c1cc(OC)c(Cc2cnc(N)nc2N)c(OC)c1 | 186 to 188 °C |
| COc1cc(Nc2nccc(-c3ccncc3)n2)cc(OC)c1OC | 205 °C |
| CC1CC(=O)c2c(SCc3ncn(C)n3)ccc(-c3nccs3)c2C1 (centres undefined) | 130 to 131 °C |
| O=C1COCC2=C1C(c1ccc(F)c(Br)c1)C1=C(CNC1=O)N2 (centres undefined) | > 260 °C |
| O=C(O)CCn1c(=O)n(CCCN2CCC(OC(c3ccccc3)c3ccccc3)CC2)c(=O)c2ccccc21 | 237 to 238 °C |
| Fc1ccc(-c2c(-c3ccncc3)nn3nccnc23)cc1 | 177 to 178 °C |

| Compound | melting point |
| --- | --- |
| COc1ccc(CCNC(=O)CNc2cccc(C(N)=O)c2)cc1OC | 133 to 135 °C |
| CC(C)c1cccc(C(C)C)c1NC(=O)N(C(C)C)C1COc2ccccc2C1 (centres undefined) | 169 to 172 °C |
| Cc1cccc(-n2nc(C)cc2-c2ccnc(NCc3ccccc3)c2)c1 | 73 to 75 °C |
| CC(C)(C)C(=O)OCOC(=O)Cn1c(=O)c2cc(Cl)ccc2n(Cc2ccc(Cl)c(Cl)c2)c1=O | 124 to 126 °C |
| COc1cc(OCCN2CCc3ccccc3C2)ccc1C=NNC(=O)c1ccc(O)c(N)c1 | 162 to 164 °C |
| CC1C=CC(C(=O)O)n2c(=O)n(CCC(=O)O)c(=O)n21 (centres undefined) | 184 to 186 °C |
| C=CCc1c(O)ccc2c1ccc(=O)n2CC=C(C)C | 224 to 228 °C |
| Oc1cccc(C2CNC3(CCCCC3)O2)c1 (centres undefined) | 138 to 139 °C |
| N#Cc1cnc(Nc2ccc(OCCn3cncn3)cc2)nc1-c1ccccc1 | 105 °C |
| N#CCc1cccc2c1C=CN(C(=O)c1ccccc1)C2C#N (centres undefined) | 66.4 to 69.7 °C |
| Cc1sc(-n2nc(C(=O)O)nc2CCl)c(C(=O)c2ccccc2)c1C | 162 to 163 °C |
| CCC(=O)c1ccc2c(c1)C(C(=O)Nc1cccc(C(=O)Nc3ccccc3)c1)C(=O)N2CC (centres undefined) | 179 to 180 °C |
| COCc1cnc2c(NC(=O)c3c(Cl)cccc3Cl)ccc(C)c2c1-n1ccnc1 | 179 to 180 °C |
| CCC[C@H]1CC[C@H]([C@H]2CC[C@H](c3ccc(C#N)cc3)CC2)CC1 | 55 °C |
| CC(C)(C)C(O)C(CS(=O)(=O)c1ccccc1)n1cncn1 (centres undefined) | 145 °C |
| CCCOc1ccc2c(c1)C(c1ccc(OC)cc1OCC(=O)O)CC2c1ccc2c(c1)OCO2 (centres undefined) | 177 to 178 °C |
| CCOC(=O)C1(C)Sc2ccccc2NC1=O (centres undefined) | 109 to 111 °C |
| CCC1c2cccn2-c2ccc(F)cc2N1C(=O)c1ccc(OC)cc1 (centres undefined) | 39 to 42 °C |
| O=C(Nc1ccc[nH]c1=O)c1ccccc1F | 223 °C |
| COCOc1c(NC(=O)NN)cc(OC)cc1C(C)(C)C | 132 to 134 °C |
| CC(C)Oc1ccc(C(=O)N/C(=C\c2ccc(OC(F)(F)F)cc2)C(=O)NCCO)cc1 | 142 to 146 °C |
| CN1C(=O)C[C@]2(c3ccccc3)CCCC[C@H]2C1=O (relative stereo) | 151 to 153 °C |
| COCCNC(=O)c1cccc(-c2cccc3cc(Cc4cccc(C#N)c4)sc23)c1 | 86 to 92 °C |
| O=c1c2cc(F)c(F)cc2nc(CSc2ncnc3[nH]cnc23)n1-c1ccccc1Cl | 208 °C |
| OCCCCCCCCCCCN1CCCCC1 | 62 to 65 °C |

| Compound | melting point |
| --- | --- |
| CNC(=O)NC1CCCc2sccc21 (centres undefined) | 183 to 186 °C |
| COc1cc2c(cc1Nc1ncc(Cl)c(Nc3ccccc3S(=O)(=O)N(C)C)n1)CCN(CC(=O)N1CCCC1)CC2 | 75 to 93 °C |
| CC(=O)Nc1cccc(-c2c(C)c(NC(=O)CC(C)(C)C)c(C)c3c2OCC3c2ccc(C(C)C)cc2)c1 (centres undefined) | 247 to 248 °C |
| CCOC(=O)C(C)Oc1ccc(Oc2nnc3cc(Br)ccc3n2)cc1 (centres undefined) | 104 °C |
| CCSc1ccc(C(=O)NCc2ccc3c(c2)C(=O)N(C2(C)CCC(=O)NC2=O)C3=O)nn1 (centres undefined) | 160 to 162 °C |
| C/C=C/C(=O)NC(=O)OC(C)(C)C | 138 to 139 °C |
| OOC1(OO)C2CC3CC(C2)CC1C3 | 144 to 145 °C |
| CCOC(=O)c1c(-c2ccc(F)cc2)cc(-c2cccc3ccccc23)nc1C(C)C | 113 to 115 °C |
| O=Cc1cc(OCc2ccccc2)c(OCc2ccccc2)cc1Cl | 100 to 102 °C |
| CCOC(=O)c1c(C(F)(F)F)nc(C(F)(F)Cl)c(C(=O)OC)c1NC(C)C | 43.5 to 45 °C |
| Nc1nc(NCCO)nc(N2CCOCC2)n1 | 159 to 161 °C |
| Cc1sc(C(=O)O)cc1CC#N | 196 to 198 °C |
| CS(=O)c1c(C(=O)c2cnoc2C2CC2)ccc(Cl)c1Cl (centres undefined) | 110 to 112 °C |
| CC(=O)N(O)C(C)c1cccc(Nc2ccccc2C(=O)NN)c1Cl (centres undefined) | 193 to 195 °C |
| O=C(O)c1ccc(NCc2cc(Br)ccc2CCc2ccccc2)cc1 | 132 to 134 °C |
| Nc1c(Cl)cc(C(O)CNCCCCCCOCCCc2ccc(CO)cc2)cc1Cl (centres undefined) | 56 to 59 °C |
| COc1ccc(-c2nc(N3CCNCC3)c3c(C)c(C#N)sc3n2)cc1 | 210 to 212 °C |
| CS(=O)(=O)c1ccc(S(=O)(=O)N2CCn3c(c(C(N)=O)c(Cl)c3-c3ccccc3)C2)cc1 | 258 to 259 °C |
| CCCc1c(OCCCCc2ccc3cc(O)c(O)cc3c2)ccc(C(=O)O)c1O | 173 to 175 °C |
| CN(Cc1ccc(S(C)(=O)=O)s1)C(=O)C12CC3CC(CC(C3)C1)C2 | 114 to 116 °C |
| CCn1cc(C(=O)O)c(=O)c2cc(Cl)c(N3CCN(C)CC3)cc21 | 260 °C |
| Cc1cc(Cl)cc(C(=O)NC(C)C)c1NC(=O)c1cc(C(F)(F)F)nn1-c1ncccc1Cl | 195 to 196 °C |
| N#Cc1ccc(Nc2nc(Cc3c(Cl)cccc3Cl)cc(NCCN3CCCC3)n2)cc1 | 80 to 85 °C |
| Cc1ccccc1Sc1c(O)c2ccc(Cl)cc2[nH]c1=O | 296 to 299 °C |
